Measured values from patent US8476197B2, “Aminopropenoates as fungicides” (priority 2009, dated 2013).
Like-named read-outs stand apart in the source and are kept apart here. Marks after values point to notes of the source that are not given here.

SMILES | Log P (pH 2.7) | also measured
CCOC(=O)C(C#N)=C(NC(C)c1ccc(C)cc1)c1cn(C)nc1C(F)F (mixture of isomers) [Compound 455] | 3.51^[a] | –
CCOC(=O)C(C#N)=C(NC(C)c1ccccc1)c1cn(C)nc1C(F)F (mixture of isomers) [Compound 456] | 3.17^[a] | –
CCOC(=O)C(C#N)=C(NC(C)c1ccc(Cl)cc1)c1cn(C)nc1C(C)F (mixture of isomers) [Compound 520] | 3.64^[a] | –
CCOC(=O)C(C#N)=C(NC(C)CSC)c1ccc(C)nc1Cl (mixture of isomers) [Compound 633] | – | Log P (pH 7.5): 3.09
CCOC(=O)C(C#N)=C(NC(C)C(F)(F)F)c1cccnc1Cl (mixture of isomers) [Compound 806] | – | Log P (pH 7.5): 2.9
C=CCOC(=O)C(C#N)=C(NC(C)C1CC1)c1cccnc1Cl (mixture of isomers) [Compound 906] | – | Log P (pH 7.5): 3.08
CCOC(=O)C(C#N)=C(NC(C)C1CC1)c1cccnc1Cl (mixture of isomers) [Compound 913] | – | Log P (pH 7.5): 2.9
CCOC(=O)C(C#N)=C(NC(C)C1CC1)c1ccc(Cl)nc1Cl (mixture of isomers) [Compound 914] | – | Log P (pH 7.5): 3.54
COC(=O)C(C#N)=C(NC(C)C(C)(C)C)c1cccnc1Cl (mixture of isomers) [Compound 916] | – | Log P (pH 7.5): 3.14
CCOC(=O)C(C#N)=C(NC1CCCCC1O)c1cccnc1Cl (mixture of isomers) [Compound 1064] | – | Log P (pH 7.5): 2.27
CC(NC(=C(C#N)C(=O)OC1CCC1)c1cccnc1Cl)C1CC1 (mixture of isomers) [Compound 1245] | – | Log P (pH 7.5): 3.46
COC(=O)C(C#N)=C(NC(C)C1CC1)c1cccnc1Cl (mixture of isomers) [Compound 1307] | – | Log P (pH 7.5): 2.58
CCOC(=O)C(C#N)=C(NC(C)C=NOC)c1cccnc1Cl (mixture of isomers) [Compound 1322] | – | Log P (pH 7.5): 2.49
CC(C)C(C)NC(=C(C#N)C(=O)NC1CC1(C)C)c1cccnc1Cl (mixture of isomers) [Compound 1495] | 3.72^[a] | –
CCOC(=O)C(C#N)=C(NC(C)C(C)OC)c1cnn(C)c1Cl (mixture of isomers) [Compound 1543] | 2.67^[a] | –
CCOC(=O)C(C#N)=C(NC(C)C(C)CC)c1cnn(C)c1Cl (mixture of isomers) [Compound 1544] | 3.6^[a] | –
CCOC(=O)C(C#N)=C(NC(C)CCCC(C)C)c1cccnc1Cl (mixture of isomers) [Compound 1582] | – | Log P (pH 7.5): 4.47
CCOC(=O)C(C#N)=C(NC(C)c1nc(C)c(C)s1)c1cn(C)nc1C(F)F (racemic) [Compound 33] | 2.96^[a] | –
CCOC(=O)C(C#N)=C(NC(C)c1nccs1)c1cn(C)nc1C(F)F (racemic) [Compound 34] | 2.4^[a] | –
CCOC(=O)C(C#N)=C(NC(C)Cc1c[nH]c2ccccc12)c1cn(C)nc1C(F)F (racemic) [Compound 35] | 3.25^[a] | –
CCOC(=O)C(C#N)=C(NC(C)c1ccccn1)c1cn(C)nc1C(F)F (racemic) [Compound 36] | 2.33^[a] | –
CCOC(=O)C(C#N)=C(NC(C)c1nc(C)c(C)s1)c1ncc(C(F)(F)F)cc1Cl (racemic) [Compound 37] | 4.04^[a] | –
CCOC(=O)C(C#N)=C(NC(C)c1nccs1)c1c(C)nn(C)c1F (racemic) [Compound 38] | 2.37^[a] | –
CCOC(=O)C(C#N)=C(NC(C)Cc1c[nH]c2ccccc12)c1ncc(C(F)(F)F)cc1Cl (racemic) [Compound 41] | 4.07^[a] | –

SMILES | Log P (pH 2.7) | also measured
CCOC(=O)C(C#N)=C(NC(C)c1ccccn1)c1ncc(C(F)(F)F)cc1Cl (racemic) [Compound 43] | 3.44^[a] | –
CCOC(=O)C(C#N)=C(NC1CCSC1=O)c1cccnc1Cl (racemic) [Compound 44] | – | Log P (pH 2.3): 2.42; Log P (pH 7.5): 2.23
CCOC(=O)C(C#N)=C(NC(C)c1nc(C)c(C)s1)c1c(C)nn(C)c1F (racemic) [Compound 45] | 2.94^[a] | –
CCOC(=O)C(C#N)=C(NC(C)Cc1c[nH]c2ccccc12)c1c(C)nn(C)c1F (racemic) [Compound 46] | 3.07^[a] | –
COC(=O)C(C#N)=C(NC(C)c1nc(C)c(C)s1)c1cn(C)nc1C(F)F (racemic) [Compound 47] | 2.65^[a] | –
CCOC(=O)C(C#N)=C(NC(c1cc2ccccc2s1)C(F)(F)F)c1cn(C)nc1C(F)F (racemic) [Compound 48] | 4.1^[a] | –
CCOC(=O)C(C#N)=C(NC(C)Cc1ncc(C(F)(F)F)cc1Cl)c1cccnc1Cl (racemic) [Compound 49] | – | Log P (pH 7.5): 3.76
CCOC(=O)C(C#N)=C(NC(C)c1ccccn1)c1c(C)nn(C)c1F (racemic) [Compound 50] | 2.28^[a] | –
CCOC(=O)C(C#N)=C(NC(c1cc2ccccc2s1)C(F)(F)F)c1c(C)nn(C)c1F (racemic) [Compound 51] | 4.25^[a] | –
CCOC(=O)C(C#N)=C(NC(C)c1nc(C)c(C)s1)c1nsc(Cl)c1Cl (racemic) [Compound 53] | 4.01^[a] | –
CCOC(=O)C(C#N)=C(NC(C)Cc1c[nH]c2ccccc12)c1nsc(Cl)c1Cl (racemic) [Compound 54] | 4.1^[a] | –
CCOC(=O)C(C#N)=C(NC(C)c1nccs1)c1nsc(Cl)c1Cl (racemic) [Compound 55] | 3.29^[a] | –
COC(=O)C(C#N)=C(NC(C)Cc1c[nH]c2ccccc12)c1cn(C)nc1C(F)F (racemic) [Compound 57] | 3^[a] | –
COC(=O)C(C#N)=C(NC(C)c1ccccn1)c1cn(C)nc1C(F)F (racemic) [Compound 59] | 2.05^[a] | –
COC(=O)C(C#N)=C(NC(c1cc2ccccc2s1)C(F)(F)F)c1cn(C)nc1C(F)F (racemic) [Compound 60] | 3.83^[a] | –
COC(=O)C(C#N)=C(NC(C)c1nccs1)c1cn(C)nc1C(F)F (racemic) [Compound 61] | 2.13^[a] | –
CCOC(=O)C(C#N)=C(NC(C)c1nccs1)c1cn(C)nc1C(F)(F)F (racemic) [Compound 63] | 2.78^[a] | –
CCOC(=O)C(C#N)=C(NC(C)c1ncc(Br)s1)c1cccnc1Cl (racemic) [Compound 128] | – | Log P (pH 7.5): 3.32
CCOC(=O)C(C#N)=C(NC(c1cc2ccccc2s1)C(F)(F)F)c1sccc1Br (racemic) [Compound 129] | 4.9^[a] | –
CCOC(=O)C(C#N)=C(NC(c1cc2ccccc2s1)C(F)(F)F)c1ccsc1Br (racemic) [Compound 130] | 4.87^[a] | –
COC(=O)C(C#N)=C(NC(C)c1nc(C)c(C)s1)c1sc(C)nc1C(F)(F)F (racemic) [Compound 131] | 3.46^[a] | –
COC(=O)C(C#N)=C(NC(C)Cc1c[nH]c2ccccc12)c1sc(C)nc1C(F)(F)F (racemic) [Compound 133] | 3.6^[a] | –
COC(=O)C(C#N)=C(NC(C)c1ccccn1)c1sc(C)nc1C(F)(F)F (racemic) [Compound 135] | 2.77^[a] | –
CCOC(=O)C(C#N)=C(NC(C)c1ccccn1)c1c(C)nn(C)c1Cl (racemic) [Compound 136] | 2.49^[a] | –

SMILES | Log P (pH 2.7) | also measured
CCOC(=O)C(C#N)=C(NC(c1cc2ccccc2s1)C(F)(F)F)c1c(C)nn(C)c1Cl (racemic) [Compound 137] | 4.46^[a] | –
CCOC(=O)C(C#N)=C(NC(C)c1ccccn1)c1cn(C)nc1C(F)(F)F (racemic) [Compound 140] | 2.75^[a] | –
CCOC(=O)C(C#N)=C(NC(C)c1nccs1)c1sc(C)nc1C(F)(F)F (racemic) [Compound 142] | 3.13^[a] | –
CCOC(=O)C(C#N)=C(NC(C)c1nc(C)c(C)s1)c1sc(C)nc1C(F)(F)F (racemic) [Compound 143] | 3.83^[a] | –
CCOC(=O)C(C#N)=C(NC(C)Cc1cc2ccccc2[nH]1)c1sc(C)nc1C(F)(F)F (racemic) [Compound 145] | 3.85^[a] | –
CCOC(=O)C(C#N)=C(NC(C)c1ccccn1)c1sc(C)nc1C(F)(F)F (racemic) [Compound 146] | 3.12^[a] | –
CCOC(=O)C(C#N)=C(NC(c1cc2ccccc2s1)C(F)(F)F)c1cn(C)nc1C(F)(F)F (racemic) [Compound 147] | 4.46^[a] | –
CCOC(=O)C(C#N)=C(NC(C)c1nccs1)c1cccnc1OCC (racemic) [Compound 148] | – | Log P (pH 2.3): 2.92; Log P (pH 7.5): 2.89
CCOC(=O)C(C#N)=C(NC(C)c1nccs1)c1cccnc1C (racemic) [Compound 152] | – | Log P (pH 7.5): 2.17
CCOC(=O)C(C#N)=C(NC(C)c1ccccn1)c1c(C(F)F)nn(C)c1Cl (racemic) [Compound 156] | 2.81^[a] | –
CCOC(=O)C(C#N)=C(NC(C)c1nc(C)c(C)s1)c1ccsc1I (racemic) [Compound 157] | 3.75^[a] | –
CCOC(=O)C(C#N)=C(NC(C)c1nccs1)c1ccsc1I (racemic) [Compound 158] | 3.08^[a] | –
CCOC(=O)C(C#N)=C(NC(C)c1ccccn1)c1sccc1Cl (racemic) [Compound 160] | 3.05^[a] | –
CCOC(=O)C(C#N)=C(NC(c1cc2ccccc2s1)C(F)(F)F)c1sccc1Cl (racemic) [Compound 162] | 4.89^[a] | –
CCOC(=O)C(C#N)=C(NC(C)c1ccccn1)c1ccsc1I (racemic) [Compound 163] | 3.03^[a] | –
CCOC(=O)C(C#N)=C(NC(C)Cc1c[nH]c2ccccc12)c1ccsc1I (racemic) [Compound 164] | 3.8^[a] | –
CCOC(=O)C(C#N)=C(NC(c1cc2ccccc2s1)C(F)(F)F)c1ccsc1I (racemic) [Compound 165] | 4.81^[a] | –
CCOC(=O)C(C#N)=C(NC(C)c1ncc(C)s1)c1sccc1Br (racemic) [Compound 169] | 3.46^[a] | –
CCOC(=O)C(C#N)=C(NC(C)c1nc(C)cs1)c1sccc1C(F)(F)F (racemic) [Compound 174] | 3.58^[a] | –
COC(=O)C(C#N)=C(NC(C)c1sc(C)nc1C)c1sc(C)nc1C(F)(F)F (racemic) [Compound 179] | 2.8^[a] | –
COC(=O)C(C#N)=C(NC(C)c1nc(C)cs1)c1sc(C)nc1C(F)(F)F (racemic) [Compound 180] | 3.04^[a] | –
COC(=O)C(C#N)=C(NC(C)c1ncc(C)s1)c1sc(C)nc1C(F)(F)F (racemic) [Compound 182] | 3.09^[a] | –
CCOC(=O)C(C#N)=C(NC(C)c1sc(C)nc1C)c1cn(C)nc1C(F)F (racemic) [Compound 187] | 2.43^[a] | –
